The values below come from PMC9228535, “Antistaphylococcal Activities and ADME-Related Properties of Chlorinated Arylcarbamoylnaphthalenylcarbamates” (Pharmaceuticals, 2022).

The nature of data set [1]: Stability of ethyl carbamate by HPLC (decomposition rate, half-life). To be noted: buffer, read-out: half-life τ0,5 (converted). The class given is physicochemical. As for the experimental part: The minimum inhibitory concentrations (MICs) were evaluated by the microtitration broth method according to the CLSI [64, 65] with some modifications. The compounds were dissolved in DMSO (Sigma, St. Louis, MO, USA) to get a concentration […] and diluted in a microtitration plate in an appropriate medium, namely, Cation Adjusted Mueller–Hinton (CaMH, Oxoid, Basingstoke, UK) for staphylococci (S. aureus ATCC 29213, clinical isolates of MRSA 63718, SA 630, and SA 3202) and brain heart infusion (BHI, Oxoid) for E. faecalis ATCC 29212, to reach the final concentration of 256-0.125 µg/mL. The plate was inoculated by the tested microorganisms. The final concentration of bacterial cells was 10^5 for bacteria. Ampicillin (Sigma) was used as reference drugs. A drug-free control and a sterility control were included. The plates were incubated for 24 h at 37 °C for staphylococci and E. faecalis ATCC 29212 (stability evaluation of the carbamates, see Supplementary materials, Table S1). […] The experiments were repeated three times. […]
evaluate of ethyl carbamate stability. A chromatographic column XTerra® Phenyl 3.5 μm, 100 × 4.6 mm (Waters Corp., Milford, MA, USA) was used. The HPLC separation process was monitored by ChemStation for LC 3D systems (Agilent Technologies). Isocratic elution by a mixture of acetonitrile (HPLC grade, 60.0%) and phosphate buffer, pH 2.5 (40%) as a mobile phase was used. The total flow of the column was 1.0 mL/min, injection 20 μL, the time of analysis was 8 min, column temperature 40 °C, and sample temperature 10 °C. The detection wavelength of 254 nm was chosen. The retention time (tR) of carbamate 2 was 4.92 ± 0.05 min and of the pattern anilide 3.12 ± 0.05 min.
Table S1. Ethyl carbamate 2 decomposition rate and half-life values.

Data set [2] concerns S. aureus and MRSA isolates. The data set can be described thus: Antistaphylococcal MIC, summary over strains. To be noted: Staphylococcus aureus, read-out: MICs. The class given is cell-based, Staphylococcus aureus. The procedure: All the investigated compounds were screened for in vitro antibacterial activity against the reference and quality control strain Staphylococcus aureus ATCC 29213 and clinical isolates of methicillin-resistant S. aureus (MRSA) 63718, SA 630, and SA 3202 [14]. Activities are expressed as the minimum inhibitory concentrations (MICs), see Table 2. In addition to the MICs, the minimum bactericidal concentrations (MBCs) were also determined. […] MBC values that meet this requirement, i.e., the compound is bactericidal, are indicated in bold in Table 2.
In vitro antibacterial activity of the synthesized compounds was evaluated against representatives of multidrug-resistant bacteria, three clinical isolates of methicillin-resistant S. aureus: clinical isolate of animal origin, MRSA 63718 (Department of Infectious Diseases and Microbiology, Faculty of Veterinary Medicine, University of Veterinary Sciences Brno, Czech Republic), carrying the mecA gene; and MRSA SA 630 [46] and MRSA SA 3202 [46] (National Institute of Public Health, Prague, Czech Republic), both of human origin. Suspected colonies were confirmed by PCR; a 108bp fragment specific for S. aureus was detected. All isolates were tested for the presence of the mecA gene encoding methicillin resistance. […] Vancomycin-susceptible methicillin-susceptible S. aureus (VS-MSSA) ATCC 29213, obtained from the American Type Culture Collection, was used as the reference and quality control strain. Enterococcus faecalis ATCC 29212 was obtained from the American Type Culture Collection and used as the reference and quality control strain.
The minimum inhibitory concentrations (MICs) were evaluated by the microtitration broth method according to the CLSI [64, 65] with some modifications. […]

Data set [3] relates to Enterococcus faecalis ATCC 29212. As to the kind of experiment: MIC, microtitration broth method. The format is cell-based.
The next data set concerns MRSA 63718. As to the kind of experiment: MBC, agar aliquot subculture method. The format is cell-based. To be noted: Staphylococcus aureus, MRSA.

Converted amounts (≈) assume the structure as drawn. Where two headings read alike, the source gives them in different places.

Turning to `CCNC(=O)Oc1c(C(=O)Nc2cc(Cl)c(Cl)cc2Cl)ccc2ccccc12` [Compound 2, 2-[N-(2,4,5-Trichlorophenyl)carbamoyl]naphthalen-1-yl ethyl carbamate], the figures for the half-life in data set [1] (pH 6), in data set [1] (pH 7) and in data set [1] (pH 8) were 50.1 days, 23.2 days and 9.12 days, respectively. For the same compound, the MIC was 0.018 to 0.064 µM (≈ 0.00788 to 0.028 µg/mL) in data set [2] and 36.6 µM (≈ 16 µg/mL) in data set [3] (Enterococcus faecalis, ATCC29212, 24 h). Further, the “anti-enterococcal activity (in words)” value in data set [3] (E. faecalis ATCC 29212) is “medium activity”. In addition, the MBC (commonly the smallest concentration meeting the test's criterion for killing) against MRSA 63718 is 0.286 µM (≈ 0.125 µg/mL).
